Results on one molecule are retold here after publication PMC5069304 (Clinical Pharmacokinetics, 2016).

Data set [1] can be described thus: Population pharmacokinetic analysis of plasma liraglutide. The data set is classed as in vivo, human.
Data set [2] in a line: Exposure assessment for dose proportionality, phase II dose-finding trial. The class given is in vivo, human.
Setting [3] is: 60 kg subject vs reference subject weighing 100 kg.
The mark [4] stands for this setting: 234 kg subject vs reference subject weighing 100 kg.

Consider `CCCCCCCCCCCCCCCC(=O)N[C@@H](CCC(=O)NCCCC[C@H](NC(=O)[C@H](C)NC(=O)[C@H](C)NC(=O)[C@H](CCC(N)=O)NC(=O)CNC(=O)[C@H](CCC(=O)O)NC(=O)[C@H](CC(C)C)NC(=O)[C@H](Cc1ccc(O)cc1)NC(=O)[C@H](CO)NC(=O)[C@H](CO)NC(=O)[C@@H](NC(=O)[C@H](CC(=O)O)NC(=O)[C@H](CO)NC(=O)[C@@H](NC(=O)[C@H](Cc1ccccc1)NC(=O)[C@@H](NC(=O)CNC(=O)[C@H](CCC(=O)O)NC(=O)[C@H](C)NC(=O)[C@@H](N)Cc1cnc[nH]1)[C@@H](C)O)[C@@H](C)O)C(C)C)C(=O)N[C@@H](CCC(=O)O)C(=O)N[C@@H](Cc1ccccc1)C(=O)N[C@H](C(=O)N[C@@H](C)C(=O)N[C@@H](Cc1c[nH]c2ccccc12)C(=O)N[C@@H](CC(C)C)C(=O)N[C@H](C(=O)N[C@@H](CCCNC(=N)N)C(=O)NCC(=O)N[C@@H](CCCNC(=N)N)C(=O)NCC(=O)O)C(C)C)[C@@H](C)CC)C(=O)O` [liraglutide, Liraglutide], for which, in data set [1] (setting [3]), the “CL/F lower than in reference subject” value turned out to be 29% and the “liraglutide exposure higher than in reference subject” value stood at 41%. In data set [1] (setting [4]), the “CL/F higher than in reference subject” value stood at 78% and the “liraglutide exposure lower than in reference subject” value came out at 44%. Further, the “liraglutide exposure lower in males than in females” value in data set [1] (comparable body weight) is recorded as 24%. Further, in data set [1] (confounded by trial (all T2DM subjects from Trial 2)), the “liraglutide exposure lower in subjects with T2DM than in normoglycaemic subjects” value is on record as 16%. Also, the “higher exposure in Trial 1 than in Trial 2” value in data set [1] (liraglutide 3.0 mg) is 29%. In data set [1] (same/comparable body weight), the “liraglutide exposure higher in females than males” value was found to be 32%. For the same molecule, the “geometric mean of the individual apparent clearance estimates” value in data set [2] (Trial 3) is on record as 0.93 L/h. Further, in data set [2] (obese individuals, 1.2, 1.8, 2.4, 3.0 mg once daily, week 20), the “dose proportionality of model-derived AUC by dose” value was “supported dose proportionality of liraglutide up to and including 3.0 mg”.
